According to patent publication US20080152640A1, “Means and Methods For Treating a Disease Which is Associated With an Excess Transport of Hyaluronan Across a Lipid Bilayer” (priority 2003, published 2008):
Like-named read-outs stand apart in the source and are kept apart here.

Key:
human fibroblasts [1] = experiment: Hyaluronan production of human fibroblasts (ELISA of culture medium); format: cell-based; details: for IC50: Fibroblast, read-out: HA production (IC50)
hyaluronan transport = experiment: Inhibition of hyaluronan transport (export) from human fibroblasts, discussion of Example 9; details: for inhibition of hyaluronan transport (words): human fibroblasts
Description: Cells from five culture flasks (180 cm2 growth area) were washed with cold phosphate buffered saline (PBS), harvested with the aid of a rubber policeman, sedimented at 1500 g for 5 min and suspended in 30 ml of ice-cold PBS. The cells were transferred into a Parr-cell disruption bomb, exposed to a nitrogen pressure of 900 psi for 15 min and disrupted by nitrogen cavitation [18] and the particulate fraction was obtained by centrifugation at 40000 g for 20 min. […] Hyaluronan synthesis was stopped by adding a solution of 10% sodium dodecylsuifate (SDS) to a final concentration of 1%. The mixtures were applied to descending paper chromatography that was developed with ethanol/aq. 1 M ammonium acetate pH 5.5 (13:7) as solvent. After 18 h the radioactivity of [14C]hyaluronan at the origin was determined.
Trypsinised fibroblasts were suspended in Dulbecco's medium at 10^5 cells/ml and 100 μl aliquots were transferred to a 96 well microtiter plate. The first row received 200 μl of the suspension and 20 μl of the multidrug resistance inhibitors dissolved in DMSO at concentrations of 4 mM. A serial dilution to the inhibitors was established by transfer of 100 μl aliquots from the first row to the following rows. All experiments were performed in duplicates. […] The cells were incubated for 2 days at 37° C. and aliquots (5 and 20 μl) of the culture medium were used for measurement of the hyaluronan concentration in the cell culture medium by an ELISA [19]. […] The mixtures were transferred to the hyaluronan-coated test plate and incubated for 1 hour at 37° C. The microtiter plate was washed three times with buffer A and incubated with 100 μl/well of a solution of streptavidin-horseraddish-peroxidase (Amersham) at a dilution of 1:100 in phosphate buffered saline, 0.1% Tween-20 for 30 min at room temperature. The plate was washed five times with buffer A and the colour was developed by incubation with a 100 μl/well of a solution of 5 mg o-phenylenediamine and 5 μl 30% H2O2 in 10 ml of 0.1 M citrate-phosphate buffer pH 5.3 for 25 min at room temperature. The adsorption was read at 490 nm. The concentrations in the samples were calculated from a logarithmic regression curve of the hyaluronan standard solutions.
Three parameters were measured: 1. The amount of hyaluronan produced during growth into the culture supernatant. 2. The hyaluronan synthase activity in particulate membrane fractions to eliminate the possibility that inhibition of hyaluronan production in cell culture could be caused indirectly by cellular mediators. 3. The effect on cell proliferation, because hyaluronan synthesis is also required for detachment during mitosis and growth of the human HT1080 cell line [14].

hyaluronan synthase = details: for IC50: read-out: HA synthase activity (IC50), membranes of human fibroblasts
MRP1 = MRP1 (Homo sapiens, UniProt P33527); details: read-out: IC50, transport of 17β-glucuronosyl-estradiol by MRP1; substrate 17β-glucuronosyl-estradiol; cited from earlier work
human skin fibroblasts = experiment: Proliferation of human skin fibroblasts (cell counting); format: cell-based; details: Homo sapiens, Skin fibroblast, read-out: Proliferation (IC50)
Description: Human fibroblasts were grown in […] in Dulbecco's modified Eagles medium supplemented with streptomycin/penicillin (100 units of each/ml), kanamycin (100 units/ml) and 10% foetal calf serum. Cell proliferation was determined by cell counting after trypsinisation three days after seeding.

MRP5 = MRP5 (Homo sapiens, UniProt O15440); details: cited from earlier work
MDR1 = MDR1 (Homo sapiens, UniProt P08183); details: cited from earlier work
MRP transporters = MRP transporters (Homo sapiens, UniProt P33527); details: read-out: IC50 for MRP transporter; cited from earlier work
MRP7 = target: T1, MRP7 (Homo sapiens, UniProt Q5T3U5); details: cited from earlier work
T1 sequence (Q5T3U5 1-1492): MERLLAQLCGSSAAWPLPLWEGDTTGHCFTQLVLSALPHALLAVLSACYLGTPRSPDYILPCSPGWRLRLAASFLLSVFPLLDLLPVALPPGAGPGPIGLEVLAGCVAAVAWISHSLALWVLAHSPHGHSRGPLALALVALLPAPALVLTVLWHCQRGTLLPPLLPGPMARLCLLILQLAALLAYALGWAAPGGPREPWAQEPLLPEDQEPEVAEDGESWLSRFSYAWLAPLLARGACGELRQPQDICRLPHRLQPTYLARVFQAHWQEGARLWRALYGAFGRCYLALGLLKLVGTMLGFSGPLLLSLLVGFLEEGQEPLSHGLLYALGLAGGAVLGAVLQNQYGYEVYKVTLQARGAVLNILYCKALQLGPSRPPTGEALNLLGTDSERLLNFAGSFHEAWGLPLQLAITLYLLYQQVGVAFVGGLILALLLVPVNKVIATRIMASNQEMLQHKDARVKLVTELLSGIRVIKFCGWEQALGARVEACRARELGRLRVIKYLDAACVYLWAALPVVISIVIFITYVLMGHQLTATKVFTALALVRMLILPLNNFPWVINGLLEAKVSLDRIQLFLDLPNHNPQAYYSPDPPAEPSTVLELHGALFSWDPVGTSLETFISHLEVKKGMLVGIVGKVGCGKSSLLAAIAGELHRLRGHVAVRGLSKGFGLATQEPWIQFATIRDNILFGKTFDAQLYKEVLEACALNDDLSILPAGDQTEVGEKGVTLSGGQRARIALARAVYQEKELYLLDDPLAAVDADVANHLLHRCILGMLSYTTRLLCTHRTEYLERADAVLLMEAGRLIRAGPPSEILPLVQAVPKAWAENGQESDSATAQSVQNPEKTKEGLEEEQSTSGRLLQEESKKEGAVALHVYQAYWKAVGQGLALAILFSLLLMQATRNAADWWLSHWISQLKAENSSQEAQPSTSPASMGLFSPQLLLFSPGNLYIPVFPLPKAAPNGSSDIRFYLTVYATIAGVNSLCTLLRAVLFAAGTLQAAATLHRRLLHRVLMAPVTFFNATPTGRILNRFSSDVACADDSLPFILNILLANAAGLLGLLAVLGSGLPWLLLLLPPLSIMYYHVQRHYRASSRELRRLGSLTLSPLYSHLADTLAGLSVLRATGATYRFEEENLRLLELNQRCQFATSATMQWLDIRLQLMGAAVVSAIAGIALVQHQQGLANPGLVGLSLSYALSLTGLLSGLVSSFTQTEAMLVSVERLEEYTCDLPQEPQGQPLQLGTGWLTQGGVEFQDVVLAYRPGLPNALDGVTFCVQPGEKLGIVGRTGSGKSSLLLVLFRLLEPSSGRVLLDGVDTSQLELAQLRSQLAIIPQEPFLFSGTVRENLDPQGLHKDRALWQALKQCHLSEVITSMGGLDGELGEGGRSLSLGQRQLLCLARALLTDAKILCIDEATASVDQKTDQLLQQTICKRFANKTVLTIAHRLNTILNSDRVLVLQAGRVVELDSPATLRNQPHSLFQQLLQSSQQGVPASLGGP

MRP2 = MRP2 (Homo sapiens, UniProt Q92887); details: cited from earlier work
MRP4 = target: T2, MRP4 (Homo sapiens, UniProt O15439); details: read-out: IC50, MRP4 mediated export of methotrexate; substrate methotrexate; cited from earlier work
T2 sequence (O15439 1-1325): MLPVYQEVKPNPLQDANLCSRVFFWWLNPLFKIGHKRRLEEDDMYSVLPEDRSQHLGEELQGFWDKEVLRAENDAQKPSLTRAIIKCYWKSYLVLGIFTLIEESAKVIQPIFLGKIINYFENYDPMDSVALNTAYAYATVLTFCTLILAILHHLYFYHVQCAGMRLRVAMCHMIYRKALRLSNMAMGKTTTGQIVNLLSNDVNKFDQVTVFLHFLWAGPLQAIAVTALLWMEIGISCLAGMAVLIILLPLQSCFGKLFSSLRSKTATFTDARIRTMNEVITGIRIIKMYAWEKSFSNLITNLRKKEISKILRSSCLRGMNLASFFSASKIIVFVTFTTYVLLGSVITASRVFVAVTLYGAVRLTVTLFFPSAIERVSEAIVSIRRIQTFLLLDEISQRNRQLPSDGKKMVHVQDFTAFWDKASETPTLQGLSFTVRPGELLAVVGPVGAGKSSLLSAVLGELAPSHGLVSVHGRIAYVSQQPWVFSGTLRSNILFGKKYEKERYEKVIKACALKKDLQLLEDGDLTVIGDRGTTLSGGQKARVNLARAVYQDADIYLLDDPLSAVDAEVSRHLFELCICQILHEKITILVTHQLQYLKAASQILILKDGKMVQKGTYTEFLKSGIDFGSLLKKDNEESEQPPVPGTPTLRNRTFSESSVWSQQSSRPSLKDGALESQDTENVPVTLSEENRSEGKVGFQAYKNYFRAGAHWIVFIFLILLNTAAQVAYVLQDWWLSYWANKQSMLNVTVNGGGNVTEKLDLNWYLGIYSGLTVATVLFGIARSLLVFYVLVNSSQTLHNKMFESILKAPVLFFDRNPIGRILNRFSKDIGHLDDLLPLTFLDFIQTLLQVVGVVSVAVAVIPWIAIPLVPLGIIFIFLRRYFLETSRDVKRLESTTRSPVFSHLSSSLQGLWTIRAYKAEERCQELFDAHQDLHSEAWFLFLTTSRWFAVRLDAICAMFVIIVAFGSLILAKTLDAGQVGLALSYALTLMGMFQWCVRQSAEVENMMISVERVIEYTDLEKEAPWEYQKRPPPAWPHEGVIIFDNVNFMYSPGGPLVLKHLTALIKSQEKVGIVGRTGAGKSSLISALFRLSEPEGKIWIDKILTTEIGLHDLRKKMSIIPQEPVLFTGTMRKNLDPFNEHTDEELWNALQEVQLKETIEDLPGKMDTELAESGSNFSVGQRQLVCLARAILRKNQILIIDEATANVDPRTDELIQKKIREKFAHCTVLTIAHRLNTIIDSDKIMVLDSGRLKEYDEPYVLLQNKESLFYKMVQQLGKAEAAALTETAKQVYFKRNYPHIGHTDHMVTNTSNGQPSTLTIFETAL

[2] = system: bovine articular cartilage; experiment: Proteoglycan loss from interleukin-induced osteoarthritic bovine cartilage organ culture; format: cell-based; details: different concentrations
Description: We analyzed the efficacy of several inhibitors in organ cultures of bovine articular cartilage that was induced to become osteoarthritic by interleukin.

human fibroblasts [3] = experiment: Export of endogenously synthesized [3H]hyaluronan from human fibroblasts; format: cell-based; details: for [3H]hyaluronan: 50 μg/ml in pinocytotic media, 40 hours
Description: (§1) This experiment was performed to investigate, whether an excess of hyaluronan oligosaccharides introduced into the cytosol interfere with the export of hyaluronan synthesized by the human fibroblasts. Fibroblasts (4×10^4 cells) were seeded into culture flasks of 25 cm^2 growth areas and incubated for 24 hours. High molecular weight hyaluronan, hyaluronan oligosaccharides, a mixture of N-acetyl-glucosamine and glucuronic acid or control buffer were introduced into the cytosol by the method of osmotic lysis of pinocytotic vesicles. The concentrations of the added components in the pinocytotic media were 50 μg/ml. The cells were incubated for 40 hours in the presence of [3H]GlcN (8 μCi/ml, specific activity 29 Ci/mmole) and the amount of radioactive hyaluronan released into the culture medium was determined as described.
as §1, with “Ci/ml,” for “μCi/ml,”, “μCi/mmole)” for “Ci/mmole)”
This experiment was performed to investigate, whether both processes could be uncoupled. Fibroblasts were labelled with [3H]GlcN and hyaluronan oligosaccharides, high molecular weight hyaluronan or an equal mixture of GlcNac and GlcA were introduced into the cytosol. [3H]hyaluronan secreted into the medium was isolated by ion exchange chromatography and the radioactivity was determined.

[4] = human fibroblasts, culture medium

MRP5, sequence (O15440 whole entry): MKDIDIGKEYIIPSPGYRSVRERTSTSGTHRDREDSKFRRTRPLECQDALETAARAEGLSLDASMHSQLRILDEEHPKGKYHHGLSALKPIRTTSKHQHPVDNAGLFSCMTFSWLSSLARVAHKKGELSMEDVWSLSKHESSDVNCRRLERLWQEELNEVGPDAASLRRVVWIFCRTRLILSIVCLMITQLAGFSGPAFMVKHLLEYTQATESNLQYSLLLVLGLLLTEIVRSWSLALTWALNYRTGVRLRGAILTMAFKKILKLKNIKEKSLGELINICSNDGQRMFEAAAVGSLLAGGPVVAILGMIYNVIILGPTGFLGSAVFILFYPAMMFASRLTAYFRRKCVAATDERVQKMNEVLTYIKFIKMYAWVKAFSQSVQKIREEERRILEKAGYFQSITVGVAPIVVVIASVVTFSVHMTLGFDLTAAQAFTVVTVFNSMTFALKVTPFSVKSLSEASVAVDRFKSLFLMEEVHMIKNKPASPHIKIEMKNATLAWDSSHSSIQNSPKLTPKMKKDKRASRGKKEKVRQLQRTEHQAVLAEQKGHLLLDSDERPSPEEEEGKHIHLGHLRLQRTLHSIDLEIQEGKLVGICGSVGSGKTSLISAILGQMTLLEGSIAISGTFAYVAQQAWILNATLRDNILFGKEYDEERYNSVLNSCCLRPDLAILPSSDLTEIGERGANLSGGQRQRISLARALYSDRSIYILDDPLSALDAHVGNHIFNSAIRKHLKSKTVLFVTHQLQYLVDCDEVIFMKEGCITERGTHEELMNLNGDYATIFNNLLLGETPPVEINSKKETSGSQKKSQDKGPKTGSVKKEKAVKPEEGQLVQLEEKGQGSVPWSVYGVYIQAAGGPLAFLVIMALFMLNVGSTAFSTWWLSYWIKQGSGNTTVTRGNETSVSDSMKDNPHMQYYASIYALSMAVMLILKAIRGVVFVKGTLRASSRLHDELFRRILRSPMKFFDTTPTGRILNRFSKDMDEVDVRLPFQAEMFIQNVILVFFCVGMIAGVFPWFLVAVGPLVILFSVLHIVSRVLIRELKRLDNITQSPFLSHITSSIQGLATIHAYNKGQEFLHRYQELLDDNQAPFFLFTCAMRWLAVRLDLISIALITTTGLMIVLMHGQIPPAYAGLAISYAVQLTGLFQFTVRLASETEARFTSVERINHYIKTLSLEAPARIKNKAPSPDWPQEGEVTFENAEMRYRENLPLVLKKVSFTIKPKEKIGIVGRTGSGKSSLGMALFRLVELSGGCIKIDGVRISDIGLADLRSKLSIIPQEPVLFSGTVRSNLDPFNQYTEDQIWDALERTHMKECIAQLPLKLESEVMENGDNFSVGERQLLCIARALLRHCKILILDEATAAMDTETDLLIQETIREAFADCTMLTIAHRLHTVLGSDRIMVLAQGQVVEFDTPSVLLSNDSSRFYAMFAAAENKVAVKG
MDR1, sequence (P08183 whole entry): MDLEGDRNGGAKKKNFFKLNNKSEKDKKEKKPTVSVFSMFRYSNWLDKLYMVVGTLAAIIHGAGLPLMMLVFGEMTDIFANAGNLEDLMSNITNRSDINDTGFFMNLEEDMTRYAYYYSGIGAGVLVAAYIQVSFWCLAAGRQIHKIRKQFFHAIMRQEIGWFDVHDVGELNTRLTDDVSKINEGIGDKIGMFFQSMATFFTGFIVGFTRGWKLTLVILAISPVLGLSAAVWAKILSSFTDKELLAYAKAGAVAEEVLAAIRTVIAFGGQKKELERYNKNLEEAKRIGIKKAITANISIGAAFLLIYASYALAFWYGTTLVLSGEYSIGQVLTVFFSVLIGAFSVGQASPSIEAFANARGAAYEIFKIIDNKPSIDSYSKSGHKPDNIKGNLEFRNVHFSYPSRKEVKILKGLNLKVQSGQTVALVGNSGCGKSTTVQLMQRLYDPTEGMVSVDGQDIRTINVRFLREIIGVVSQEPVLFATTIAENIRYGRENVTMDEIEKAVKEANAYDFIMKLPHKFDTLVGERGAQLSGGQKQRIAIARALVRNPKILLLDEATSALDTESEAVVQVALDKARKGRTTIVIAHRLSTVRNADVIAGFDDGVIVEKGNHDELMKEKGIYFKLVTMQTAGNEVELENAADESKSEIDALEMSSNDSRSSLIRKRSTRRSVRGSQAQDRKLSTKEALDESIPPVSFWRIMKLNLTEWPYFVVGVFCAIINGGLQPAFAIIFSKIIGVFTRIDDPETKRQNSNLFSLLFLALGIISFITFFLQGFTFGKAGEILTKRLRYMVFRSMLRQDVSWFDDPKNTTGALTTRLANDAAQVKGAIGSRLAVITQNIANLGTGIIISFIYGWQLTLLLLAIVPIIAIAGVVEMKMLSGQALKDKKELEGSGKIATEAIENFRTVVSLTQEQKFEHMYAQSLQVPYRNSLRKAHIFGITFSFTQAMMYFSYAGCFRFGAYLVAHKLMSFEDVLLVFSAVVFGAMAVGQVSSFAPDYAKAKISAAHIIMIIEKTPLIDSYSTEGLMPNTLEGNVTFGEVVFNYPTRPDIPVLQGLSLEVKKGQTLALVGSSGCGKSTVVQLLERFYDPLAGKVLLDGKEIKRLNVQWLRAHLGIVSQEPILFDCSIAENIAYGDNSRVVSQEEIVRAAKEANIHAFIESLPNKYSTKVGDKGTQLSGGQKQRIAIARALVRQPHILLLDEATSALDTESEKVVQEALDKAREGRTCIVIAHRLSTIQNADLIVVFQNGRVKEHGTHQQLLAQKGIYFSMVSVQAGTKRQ
MRP2, sequence (Q92887 whole entry): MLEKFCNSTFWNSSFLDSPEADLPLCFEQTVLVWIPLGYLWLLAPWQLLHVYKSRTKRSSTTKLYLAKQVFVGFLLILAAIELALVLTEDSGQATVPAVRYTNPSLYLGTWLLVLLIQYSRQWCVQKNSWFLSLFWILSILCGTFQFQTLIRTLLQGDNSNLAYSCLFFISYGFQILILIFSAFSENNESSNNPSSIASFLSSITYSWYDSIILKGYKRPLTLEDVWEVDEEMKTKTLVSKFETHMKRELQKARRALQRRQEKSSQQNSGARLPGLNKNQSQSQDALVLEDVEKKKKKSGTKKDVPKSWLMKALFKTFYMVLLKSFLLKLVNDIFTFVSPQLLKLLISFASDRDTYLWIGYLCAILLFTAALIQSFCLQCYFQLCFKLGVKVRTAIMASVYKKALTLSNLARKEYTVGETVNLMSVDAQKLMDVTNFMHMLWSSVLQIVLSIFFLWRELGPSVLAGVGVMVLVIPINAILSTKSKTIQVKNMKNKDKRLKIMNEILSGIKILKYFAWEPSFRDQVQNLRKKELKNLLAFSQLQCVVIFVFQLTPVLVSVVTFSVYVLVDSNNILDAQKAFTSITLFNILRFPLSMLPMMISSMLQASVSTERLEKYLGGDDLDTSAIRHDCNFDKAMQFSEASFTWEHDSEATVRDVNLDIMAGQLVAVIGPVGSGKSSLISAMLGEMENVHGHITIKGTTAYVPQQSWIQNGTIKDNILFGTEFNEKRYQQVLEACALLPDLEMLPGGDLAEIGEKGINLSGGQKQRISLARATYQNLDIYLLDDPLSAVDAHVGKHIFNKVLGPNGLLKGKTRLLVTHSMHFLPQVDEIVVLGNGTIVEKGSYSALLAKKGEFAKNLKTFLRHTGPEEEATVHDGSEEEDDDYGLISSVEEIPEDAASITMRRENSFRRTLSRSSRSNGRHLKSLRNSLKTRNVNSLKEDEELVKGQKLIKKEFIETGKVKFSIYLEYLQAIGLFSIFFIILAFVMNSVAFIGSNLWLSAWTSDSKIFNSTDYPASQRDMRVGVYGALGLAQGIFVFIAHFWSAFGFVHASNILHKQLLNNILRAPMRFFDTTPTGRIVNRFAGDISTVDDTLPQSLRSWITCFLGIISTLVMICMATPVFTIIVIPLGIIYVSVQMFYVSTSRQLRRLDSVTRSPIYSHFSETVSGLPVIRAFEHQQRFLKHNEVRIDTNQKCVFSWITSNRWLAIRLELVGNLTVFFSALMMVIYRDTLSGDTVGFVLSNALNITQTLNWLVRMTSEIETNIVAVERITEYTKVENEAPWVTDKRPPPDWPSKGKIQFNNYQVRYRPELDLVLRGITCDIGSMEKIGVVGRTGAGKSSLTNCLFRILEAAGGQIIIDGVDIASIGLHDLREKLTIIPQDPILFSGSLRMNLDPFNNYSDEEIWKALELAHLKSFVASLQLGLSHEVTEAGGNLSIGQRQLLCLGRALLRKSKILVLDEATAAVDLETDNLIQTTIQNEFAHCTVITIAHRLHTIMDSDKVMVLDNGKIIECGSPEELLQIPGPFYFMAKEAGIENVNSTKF

## OCCN(CCO)c1nc(N2CCCCC2)c2nc(N(CCO)CCO)nc(N3CCCCC3)c2n1 [Dipyramidole]
Human fibroblasts [1]; Homo sapiens
  IC50: 15 µM
Hyaluronan transport
  inhibition of hyaluronan transport (words): effective inhibitor
Hyaluronan synthase
  IC50: ~1 µM

## COc1ccc2c(c1)c(CC(=O)O)c(C)n2C(=O)c1ccc(Cl)cc1 [Indomethacin]
Human fibroblasts [1]; [4]
  IC50: 50 µM
MRP1
  IC50: ~50 µM
Human skin fibroblasts
  IC50: 200 µM
MRP5; read-out: published inhibitory concentrations IC50 or Ki, MRP5
  IC50: > 100 µM
MRP5; substrate S-(2,4-dinitrophenyl)glutathione, read-out: IC50, MRP5 mediated transport of S-(2,4-dinitrophenyl)glutathione
  IC50: > 100 µM
MDR1; read-out: IC50 for MDR1
  IC50: > 800 µM
MDR1; read-out: published inhibitory concentrations IC50 or Ki, MDR1
  IC50: > 800 µM
MRP transporters
  IC50: 10 to 20 µM
Hyaluronan transport
  inhibition of hyaluronan transport (words): very good inhibition
Hyaluronan transport; listed as indomethacin
  inhibition of hyaluronan transport (words): inhibited hyaluronan transport
Hyaluronan synthase
  IC50: 10 µM

## CN(C)C(=O)CCSC(SCCC(=O)O)c1cccc(/C=C/c2ccc3ccc(Cl)cc3n2)c1 (stereo not shown) [MK-571]
Human fibroblasts [1]; [4]
  IC50: > 400 µM
Human fibroblasts [1]; human fibroblasts, inhibition only partial
  concentrations at which hyaluronan secretion/production is inhibited: above 100 μM
Human skin fibroblasts
  IC50: 150 µM
MRP5; at concentrations up to 50 μM
  effect on MRP5 mediated transport of cGMP: no inhibitory effect
MRP5
  published inhibitory concentrations IC50 or Ki, MRP5: no
Hyaluronan transport
  inhibition of hyaluronan transport (words): did not inhibit
MRP7; at 30 μM
  inhibition of 17β-glucuronosyl-estradiol export by MRP7: 42%
MRP2
  IC50: 469 µM
Hyaluronan synthase; membranes from human fibroblasts
  hyaluronan transport / synthase activity in membranes: less efficient
Hyaluronan synthase
  IC50: > 100 µM

## COc1cc2c(cc1OC)-c1c/c(=N\c3c(C)cc(C)cc3C)n(C)c(=O)n1CC2 [Trequinsin]
Human fibroblasts [1]; [4]
  IC50: 6 µM
MRP4
  IC50: ~10 µM
Human skin fibroblasts
  IC50: 100 µM
MRP5; substrate cAMP, read-out: Ki, MRP5 mediated transport of cAMP
  Ki: 0.38 µM
MRP5; substrate cGMP, read-out: Ki, MRP5 mediated transport of cGMP
  Ki: 0.24 µM
Hyaluronan transport
  inhibition of hyaluronan transport (words): good inhibitor
MRP7; at 100 μM
  inhibition of export of 17β-glucuronosyl-estradiol by MRP7: 44%
Hyaluronan synthase
  IC50: 60 µM

## C/C=C/C[C@@H](C)C(=O)[C@H]1C(=O)N[C@@H](C(C)C)C(=O)N(C)CC(=O)N(C)[C@@H](CC(C)C)C(=O)N[C@@H](C(C)C)C(=O)N(C)[C@@H](CC(C)C)C(=O)N[C@@H](C)C(=O)N[C@H](C)C(=O)N(C)[C@@H](CC(C)C)C(=O)N(C)[C@@H](CC(C)C)C(=O)N(C)[C@@H](C(C)C)C(=O)N1C [Valspodar, cyclosporin D, 6-[(2S, 4R, 6E)-4-methyl-2 (methylamino)-3-oxo-6-octenoic acid]-(9CI)]
Human fibroblasts [1]; Homo sapiens
  IC50: 15 µM
Human skin fibroblasts
  IC50: 45 µM
Hyaluronan transport; Homo sapiens, Fibroblast, read-out: IC50 for hyaluronan transport (export)
  IC50: ~15 µM

## N=C(N)NC(=O)c1nc(Cl)c(N)nc1N [amyloride]
[2]
  protection from proteoglycan loss, safranin O histology: only inhibitory at high concentrations

## CC(C)COCC(CN(Cc1ccccc1)c1ccccc1)N1CCCC1 (stereo not shown) [bepidril]
[2]
  protection from proteoglycan loss, safranin O histology: only inhibitory at high concentrations

## Hyaluronan
Human fibroblasts [3]; Example 10 Table 2, buffer
  [3H]hyaluronan: 10700 cpm
Human fibroblasts [3]; Example 11 Table 1, buffer 9436
  [3H]hyaluronan: 10723 cpm
Human fibroblasts [3]; introduced into the cytosol
  export of endogenous labelled hyaluronan: not
